The values below come from patent US10774114B2, “Respiratory syncytial virus (RSV) replication inhibitors” (priority 2014, dated 2020).

For one data set, the system named is RSV-mCherry virus. To be noted: read-out: EC50, inhibition of viral replication; Hep2 cells infected with RSV-mCherry, peptides added post-infection, fluorescence read at 48 h.
A short description of a further data set: in vitro. It is filed as cell-based. The settings on record: human. The protocol: (§1) HEp-2 (ATCC number CCL-23) and BHK-21 (clone BSRT7/5) cells were maintained in Eagle's miminum essential medium (EMEM) and Dulbecco's modified Eagle's medium (DMEM), respectively, supplemented with 10% FCS, 2 mM L-glutamine, and penicillin-streptomycin solution. The cells were grown in an incubator at 37° C. in 5% CO2. Cytotoxicity assays were done with the CellTiter-Glo Luminescent cell viability assay (Promega). Cells were transfected using Lipofectamine 2000 (Invitrogen, Cergy-Pontoise, France) as described by the manufacturer.

Another data set deals with rHRSV-Luc. Put plainly: In vivo mice luciferase assay (rHRSV-Luc-infected mice). To be noted: intranasal, 0.6 mg/ml, 50 μL in PBS, repeated at days 2 and 4; 6x10^4 PFU rHRSV-Luc.
For a further data set, the system named is Hep2 cells. Put plainly: in vitro. To be noted: at a concentration of 100 μM. In kind it is cell-based. The procedure:
as §1

The nature of data set [1]: Far-UV CD spectroscopy (alpha-helical content). In kind it is physicochemical. To be noted: 10 mM phosphate buffer, pH 7.5. The protocol:
FIGS. 7A-7C: Far-UV CD spectra of stapled peptides in 10 mM phosphate buffer, pH 7.5. […] HEVS 115-129.
CD experiments were performed on a Jasco-810 or on a Chirascan spectropolarimeter in a thermostated cell holder at 20° C. The samples were prepared in 10 mM phosphate buffer, pH 7.5, at a peptide concentration of 25 μM for HEVS 73-79 or […] for the other peptides. The far-UV spectra were recorded at 25° C. by step scan from 190 nm to 250 nm with a scan rate of 100 nm per min using a bandwidth of 1 nm and an integration time of 1 s. Each spectrum was the average of 5 scans. The spectra were substracted from buffer baseline and smoothed using the FFT filter (Jasco Software, Tokyo, Japan). The data were converted to per residue molar ellipticity units [Θ] (deg.cm^2.dmol^−l.residue^−1). The percentage of helicity was calculated as follows:
[formula] whereby CD222=molar ellipticity [e] at 222 nm in [mdeg], N=number of amino acids in the peptide and C=peptide molar concentration [mol/1].

Where a SMILES comes first, the peptide text is derived from it. Bridges are numbered along the chain shown (N, C = ends). [ ]: non-standard residue; d: D form. R8 = C=CCCCCCC[C@@](C)(N)C(=O)O; R5 = C=CCCC[C@@](C)(N)C(=O)O; S5 = C=CCCC[C@](C)(N)C(=O)O

Broadly, the EC50 is the concentration giving half of the maximal effect. The CC50 is the concentration giving 50% cytotoxicity. Higher therefore signals lower toxicity to the cells.

Procedure for RSV-mCherry virus: HEp-2 cells were seeded in 96 well plates and infected with 500 PFU of rHRSV-Cherry virus. Following viral infection, cells were incubated in the presence of serial dilutions of stapled peptides. The red fluorescence was read at 48 h post infection by automatic counting.
rHRSV-mCherry Inhibition Assay.
HEp-2 cells were seeded at 5×10^4 cells per well in 96 well plates the day before and infected for 2 hours with 500 PFU of RSV-mCherry. The medium was then changed against MEM without phenol red medium containing dilutions of peptides. Each point of peptide dilution was made in duplicate. Plates were incubated 48 h at 37° C. and mCherry fluorescence measurement was performed using a spectrofluorometer (Tecan infinite M200PRO) with excitation and emission wavelengths of 580 and 620 nm, respectively (expressed in relative fluorescence units RFU). Non-infected HEp-2 cells were used as standards for fluorescence background levels.
Next the potential activity of stapled peptides was tested on infected cells. Hep2 cells were infected with a RSV-mCherry virus engineered by reverse genetics (Rameix-Welti et al, Nat Comm., 2014), and increasing concentrations of stapled peptides were added post-infection to study their effect on viral replication.
Source text for rHRSV-Luc: In Vivo Mice Luciferase Assay.
Female BALB/c mice were purchased from the Centre d'ElevageR. Janvier (Le Genest Saint-Isle, France) and were used around 8 weeks of age. Mice strains were bred in a pathogen-free animal facility. Mice were fed normal mouse chow and water ad libitum and were raised and housed under standard conditions with air filtration. For infection experiments, mice were housed in cages inside stainless steel isolation cabinets that were ventilated under negative pressure with high-efficiency particulate air-filtered air. Mice were anesthetized by a mixture of ketamine and xylazine (1 and 0.2 mg per mouse, respectively) and infected IN with 50 μl of PBS containing 6×10^4 PFU of rHRSV-Luc. Body temperature and body weight were monitored at days 3-10. For in vivo imaging, mice were anesthetized. Alternatively, mice were killed at different time points, and lungs were then collected. For each time point, experiments were done in quadruplicate. […] Oral treatments were administered 1 h prior to RSV inoculation and then once on day 2 and on day 4. This experiment was repeated once.

On to `CC[C@H](C)[C@H](NC(=O)[C@]1(C)CCCC=CCCCCCC[C@@](C)(NC(=O)[C@H](CC(N)=O)NC(=O)[C@H](CC(N)=O)NC(=O)[C@H](C)NC(=O)[C@H](CC(=O)O)NC(=O)[C@H](CCC(=O)O)NC(C)=O)C(=O)N[C@@H](C)C(=O)N[C@@H]([C@@H](C)O)C(=O)N[C@@H](CCCCN)C(=O)N[C@@H](Cc2ccccc2)C(=O)N[C@@H](CC(C)C)C(=O)N[C@@H](CCC(=O)O)C(=O)N1)C(=O)N[C@@H](CCCCN)C(=O)NCC(=O)N[C@@H](CCCCN)C(=O)N[C@@H](Cc1ccccc1)C(=O)N[C@@H](C)C(=O)N[C@@H](CO)C(N)=O` [HEVS 77, EDANNR8ATKFLES5IKGKFAS] (Ac-EDANN[R8]ATKFLE[S5]IKGKFAS-NH2; staple 6-13), for which the EC50 with RSV-mCherry virus came out at 60 µM. Consider `CC[C@H](C)[C@@H]1NC(=O)[C@@](C)(NC(=O)[C@H](CCC(=O)O)NC(=O)[C@H](CC(C)C)NC(=O)[C@H](Cc2ccccc2)NC(=O)[C@H](CCCCN)NC(=O)[C@@H](NC(=O)[C@H](C)NC(=O)[C@H](CCCCN)NC(=O)[C@H](CC(N)=O)NC(=O)[C@H](CC(N)=O)NC(=O)[C@H](C)NC(=O)[C@H](CC(=O)O)NC(=O)[C@H](CCC(=O)O)NC(C)=O)[C@@H](C)O)CCCC=CCCC[C@@](C)(C(=O)N[C@@H](Cc2ccccc2)C(=O)N[C@@H](C)C(=O)N[C@@H](CO)C(N)=O)NC(=O)CNC(=O)[C@H](CCCCN)NC1=O` [HEVS 78] (Ac-EDANNKATKFLE[S5]IKG[S5]FAS-NH2; staple 13-17), for which the EC50 with RSV-mCherry virus came to 15 µM. Also, in the data set “in vitro”, the CC50 was ~40 µM.

Consider `CC[C@H](C)[C@@H]1NC(=O)[C@](C)(NC(=O)[C@H](CCC(=O)O)NC(=O)[C@H](CC(C)C)NC(=O)[C@H](Cc2ccccc2)NC(=O)[C@H](CCCCN)NC(=O)[C@@H](NC(=O)[C@H](C)NC(=O)[C@H](CCCCN)NC(=O)[C@H](CC(N)=O)NC(=O)[C@H](CC(N)=O)NC(=O)[C@H](C)NC(=O)[C@H](CC(=O)O)NC(=O)[C@H](CCC(=O)O)NC(C)=O)[C@@H](C)O)CCCCCCC=CCCC[C@@](C)(C(N)=O)NC(=O)[C@H](C)NC(=O)[C@H](Cc2ccccc2)NC(=O)[C@H](CCCCN)NC(=O)CNC(=O)[C@H](CCCCN)NC1=O` [HEVS 79] (Ac-EDANNKATKFLE[R8]IKGKFA[S5]-NH2; staple 13-20), for which the EC50 in the data set with RSV-mCherry virus is ~80 µM. Take `CC[C@H](C)[C@H](NC(=O)[C@]1(C)CCCC=CCCCCCC[C@@](C)(NC(=O)[C@H](CC(N)=O)NC(=O)[C@H](CC(N)=O)NC(=O)[C@H](C)NC(=O)[C@H](CC(=O)O)NC(=O)[C@H](CCC(=O)O)NC(=O)CNC(=O)[C@H](Cc2c[nH]cn2)NC(=O)[C@H](Cc2ccccc2)NC(=O)[C@H](CCC(=O)O)NC(C)=O)C(=O)N[C@@H](C)C(=O)N[C@@H]([C@@H](C)O)C(=O)N[C@@H](CCCCN)C(=O)N[C@@H](Cc2ccccc2)C(=O)N[C@@H](CC(C)C)C(=O)N[C@@H](CCC(=O)O)C(=O)N1)C(=O)N[C@@H](CCCCN)C(=O)NCC(=O)N[C@@H](CCCCN)C(=O)N[C@@H](Cc1ccccc1)C(=O)N[C@@H](C)C(=O)N[C@@H](CO)C(N)=O` [HEVS 124]: the “luciferase activity (bioluminescence) in treated mice” value with rHRSV-Luc is given as “significant reduction”. Besides, the EC50 in the data set with RSV-mCherry virus was 11 µM. In the case of `CC[C@H](C)[C@H](NC(=O)[C@]1(C)CCCC=CCCCCCC[C@@](C)(NC(=O)[C@H](CC(N)=O)NC(=O)[C@H](CC(N)=O)NC(=O)[C@H](C)NC(=O)[C@]2(C)CCCC=CCCC[C@@](C)(NC(=O)[C@H](Cc3ccccc3)NC(=O)[C@H](CCC(=O)O)NC(C)=O)C(=O)NCC(=O)N[C@@H](CCC(=O)O)C(=O)N2)C(=O)N[C@@H](C)C(=O)N[C@@H]([C@@H](C)O)C(=O)N[C@@H](CCCCN)C(=O)N[C@@H](Cc2ccccc2)C(=O)N[C@@H](CC(C)C)C(=O)N[C@@H](CCC(=O)O)C(=O)N1)C(=O)N[C@@H](CCCCN)C(=O)NCC(=O)N[C@@H](CCCCN)C(=O)N[C@@H](Cc1ccccc1)C(=O)N[C@@H](C)C(=O)N[C@@H](CO)C(N)=O` [HEVS 126, EFR5GES5ANNR8ATKFLES5IKGKFAS] (Ac-EF[R5]GE[S5]ANN[R8]ATKFLE[S5]IKGKFAS-NH2; staple 3-6, 10-17), the half-maximal effective concentration (EC50) in the data set with RSV-mCherry virus was 3.5 µM. In addition, the cytotoxicity result in the data set with Hep2 cells is listed as “cytotoxic”. In the case of EDANNKATKFLESIKGKFAS [HEVS 73], the “folding state by far UV CD” value in data set [1] is on record as “largely unfolded”.
